Source: patent publication US20060148732A1, “Inhibition of NF-kappaB by triterpene compositions” (priority 2000, published 2006)

Assays:
[1] = test system: p65 subunit of NF-κB in Jurkat cells; assay: Western blot of nuclear translocation of p65; format: cell-based, human; settings: 2 μg/ml 16 hours, TNF 1 nM
Protocol: (§1) Western Blot Analysis. Cytoplasmic and nuclear extracts of Jurkat cells treated with monoterpene/triterpene glycoside G1 were used to study the degradation of IκB and nuclear translocation of the p65 subunit of NF-κB respectively. Then, 50 μg of the cytoplasmic or nuclear protein were resolved on a 9% SDS-polyacrylamide gel and electrotransferred onto a nitrocellulose membrane. The membranes were probed with rabbit anti-IκBα or rabbit anti-p65 antibody (Santa Cruz, Calif.) followed with anti-rabbit antibody conjugated to horseradish peroxidase (HRPO). Protein bands were detected by chemiluminescence (ECL, Amersham).

[2] = test system: IκBα in Jurkat cells; assay: Western blot of IκBα degradation; format: cell-based, human; settings: 2 μg/ml 16 hours, TNF 1 nM
Protocol: as §1

[3] = test system: Jurkat (T-cell leukemia) cells; assay: Cytotoxicity screen (MTT/crystal violet, 72 h); format: cell-based, human; settings: for inhibitory concentration 50 (IC50), growth inhibition: MTT, 72 hours
Protocol: Each of the extracts was then screened against a panel of human tumor and non-tumor cells including human ovarian cancer cell lines, T-leukemic cells, human epidermoid cells, human breast cancer cells, human prostate cancer cells, human foreskin fibroblast cells, human endothelial cells, and human renal cancer cells. The cells were first plated in 96-well plates for 18-24 hours at 37° C. The cells were then exposed to varying concentrations of the plant extracts, and incubated for 72 hours at 37° C., and stained with either MTT (3-(4,5-dimethylethiazol-2-yl)-2,5-diphenyl tetrazolium bromide; Sigma Chemical Co.) for 4 hours or crystal violet (Sigma Chemical Co.) for 20 minutes at room temperature. The MTT plates received lysis buffer (20% sodium dodecyl sulfate in 50% DMF) and were incubated for an additional 6 hours before taking an OD reading at 570 nm. The crystal violet plates were washed, dye was extracted for 3-4 hours with Sorenson's buffer (0.1 M sodium citrate (pH 4.2), 50% v/v ethanol), and the plates were read at 570-600 nm (Mujoo et al., 1996). Cytotoxicity of the screened extracts was indicated by comparing the OD readings between the treated media alone and the cells treated with the plant extract. Percent cytotoxicity was calculated by 100-% of control, where % of control =[((OD of cells treated with plant extract (treated sample))/(OD of cells exposed to media alone (untreated sample)))×100].
Assay for Growth Inhibition. The growth inhibitory activity of F094 and avicins was measured by the MTT [3-(4, 5-Dimethylthiazol-2-yl)-2, 5-diphenyl tetrazolium bromide)] reduction assay (Deng et al., 1999). Cells (1×10^4/well) were cultured with varying concentrations of F094, avicin D, or avicin G in 96 well plates for 72 hours at 37° C. The cells were stained with MTT for 2 hours and then incubated with lysis buffer (20% sodium dodecyl sulfate in 50% N,N-dimethylformamide) for another 6 hours. Optical density at 570 nm was used as a measure of cell viability.

[4] = test system: iNOS in RAW 264.7 cells; assay: LPS-induced iNOS expression (western blot); format: cell-based; settings: RAW264.7; 2 μg/ml 16 h; LPS 100 ng/ml
Protocol: Induction and Measurement of iNOS and COX-2. RAW 264.7 cells (0.5×10^6/ml) were plated in 100 mm dishes and treated with F094 or monoterpene/triterpene glycosides (2 μg/ml) for 16 h. Next, the cells were exposed to 100 ng/ml of LPS for 24 h. Cells were lysed in a buffer containing 50 mM Tris, pH 7.4, 100 mM NaCl, 0.5% NP-40, 10 μg/ml leupeptin, 5 μg/ml aprotinin, and 100 μM PMSF. 70 μg of cellular protein were then loaded on a 7.5% SDS-polyacrylamide gel and electrotransferred onto a nitrocellulose membrane. Levels of iNOS and COX-2 were analyzed by Western blot analysis using rabbit anti-iNOS (Santa Cruz) and goat anti-COX-2 antibodies respectively.

[5] = test system: cytochrome c in Jurkat cells; assay: Cytochrome c release from mitochondria (western blot); format: cell-based, human; settings: 2 μg/ml
Protocol: Release of cytochrome c from mitochondria in response to treatment with F035 was detected by western blotting. Jurkat cells (10 ×10^6) were treated with 2 μg/ml of F035 for 4 and 6 h at 37° C. Cell pellets were washed in sucrose buffer (0.25M sucrose, 30 mM Tris, pH 7.7, 1 mM EDTA). To the cell pellets added 20 μl of sucrose buffer containing 1 μM PMSF, 1 μg/ml leupeptin, 1 μg/ml pepstatin and 1 μg/ml aprotinin. Cells were disrupted by douncing 120 times in a 0.3 ml Kontes douncer with a B pestle (Kontes Glass company). Cellular protein (60 μg) was resolved on a 15% SDS-polyacrylamide gel and electrotransferred onto a nitrocellulose membrane. The membrane was probed first with monoclonal anti-cytochrome c antibody (PharMingen) and then with anti-mouse antibody conjugated to horse radish peroxidase (HRPO). Protein bands were detected by chemiluminescence (ECL, Amersham).
Detection of Cytochrome c Release from Mitochondria. Release of cytochrome c from mitochondria was detected by Western blot analysis. Jurkat cells (1×10^7) were treated with F094, avicin D, or avicin G (2 μg/ml) at 37° C. After washing the cell pellets in sucrose buffer (0.25 M sucrose, 30 mM Tris, pH 7.7, 1 mM EDTA), they were resuspended in 20 μl of sucrose buffer containing 1 μM PMSF, 1 μg/ml leupeptin, 1 μg/ml pepstatin, and 1 μg/ml aprotinin. Cells were disrupted by douncing 120 times in a 0.3 ml Kontes douncer (Kontes Glass Company, Vineland, N.J.) with a B pestle. Cellular protein (50 μg) was resolved on a 15% SDS-polyacrylamide gel and electrotransferred onto a nitrocellulose membrane. The membrane was probed with monoclonal anti-cytochrome c antibody (Pharmingen, San Diego, Calif.) followed with anti-mouse antibody conjugated to horseradish peroxidase (HRPO). Protein bands were detected by chemiluminescence (ECL, Amersham).

[6] = test system: pGL3-NF-κB in Jurkat cells; assay: NF-κB dependent luciferase gene expression; format: cell-based, human; settings: transfected Jurkat; pretreatment
Protocol: Transfection and Assay of Luciferase Activity. Jurkat cells were transfected with pGL3-NF-κB by electroporation. The cells were then treated with monoterpene/triterpene glycoside G1 (1 μg/ml) for 16 h. NF-κB was activated using LPS (100 ng/ml), PMA (5 ng/ml), or TNF (1 nM). Luciferase activity was measured using the luciferase assay kit (Promega, Madison, Wis.) as per the manufacturer's instructions.

Row | SMILES | nuclear translocation of p65 subunit [1] | pattern of IκB degradation [2] | inhibitory concentration 50 (IC50), growth inhibition [3] [µg/mL] | Cytotoxicity IC50 ([3]; pH 6.5) [µg/mL] | Cytotoxicity IC50 ([3]; pH 7.5) [µg/mL] | levels of LPS-induced iNOS [4] | increase in cytosolic cytochrome c ([5]; 30 minutes post-treatment) [fold] | increase in cytosolic cytochrome c ([5]; 4 hours post-treatment) [fold] | luciferase activity induced by LPS, PMA or TNF [6]
1 | C=C[C@](C)(O)CC/C=C(\C)C(=O)O[C@H]1[C@H](O)[C@@H](O)[C@H](O[C@@](C)(C=C)CC/C=C(\CO)C(=O)O[C@H]2C[C@]3(C(=O)O[C@@H]4O[C@H](CO)[C@@H](O)[C@H](O)[C@H]4O[C@@H]4O[C@@H](C)[C@H](O[C@@H]5O[C@@H](CO)[C@H](O)[C@H]5O)[C@@H](O[C@@H]5O[C@H](CO)[C@@H](O)[C@H](O)[C@H]5O)[C@H]4O)[C@H](O)C[C@]4(C)C(=CC[C@@H]5[C@@]6(C)CC[C@H](O[C@@H]7O[C@H](CO[C@@H]8O[C@H](C)[C@H](O)[C@H](O)[C@H]8O[C@@H]8OC[C@@H](O)[C@H](O)[C@H]8O)[C@@H](O)[C@H](O)[C@H]7NC(C)=O)C(C)(C)[C@@H]6CC[C@]54C)[C@@H]3CC2(C)C)O[C@@H]1C [Fraction G1] | slows down nuclear translocation of the p65 subunit considerably | no difference | 0.160 to 0.181 | 0.3 | 0.49 | decreases the levels of LPS-induced iNOS and COX-2 sharply | 3.5 | 8.4 | significantly inhibited
2 | C=C[C@](C)(O)CC/C=C(\CO)C(=O)O[C@H]1[C@H](O)[C@@H](O)[C@H](O[C@@](C)(C=C)CC/C=C(\CO)C(=O)O[C@H]2C[C@]3(C(=O)O[C@@H]4O[C@H](CO)[C@@H](O)[C@H](O)[C@H]4O[C@@H]4O[C@@H](C)[C@H](O[C@@H]5O[C@@H](CO)[C@H](O)[C@H]5O)[C@@H](O[C@@H]5O[C@H](CO)[C@@H](O)[C@H](O)[C@H]5O)[C@H]4O)[C@H](O)C[C@]4(C)C(=CC[C@@H]5[C@@]6(C)CC[C@H](O[C@@H]7O[C@H](CO[C@@H]8O[C@H](C)[C@H](O)[C@H](O)[C@H]8O[C@@H]8OC[C@@H](O)[C@H](O)[C@H]8O)[C@@H](O)[C@H](O)[C@H]7NC(C)=O)C(C)(C)[C@@H]6CC[C@]54C)[C@@H]3CC2(C)C)O[C@@H]1C [Fraction D1] |  |  | 0.320 to 0.326 | 1.01 | 0.98 |  | 1.5 | 3 | 
